We go through six molecules from patent US20090047306A1, “ADJUVANT COMPOSITIONS” (priority 2004, published 2009).

Assay [1] has as its system OVA-specific IgG1 and IgG2a. The experiment in a line: OVA-specific IgG1 and IgG2a plasma antibody titres (ELISA) after immunization with OVA/alum with or without alkaloid. It is filed as in vivo, mice (BALB/c). As for the experimental part: Alhydrogel (alum; purchased from Superfos BioSector a/s, Vedbaek, Denmark) was mixed with a predetermined quantity of highly purified ovalbumin (OVA; Worthington Biochemical Corporation, Lakewood, N.J.) with or without 3,7-diepi-casuarine.
(§1) All mice (BALB/c) were immunized subcutaneously into the foodpad with 100 μg OVA in 50 μl phosphate-buffered saline (PBS) mixed with alum and either PBS (control) or 3,7-diepi-casuarine (50 μg in PBS). Boosting inoculations were performed in the same fashion 2 weeks later, into the contralateral footpad.
Blood samples (tail bleeds) were taken 3 weeks after the primary inoculation. Enzyme-linked immunosorbent assays (ELISA) were performed as described in Brewer et al. (1999) J Immunol 163:6448-54 to detect OVA-specific IgG1 and IgG2a in plasma. Results were expressed as end-point dilutions where the end-point is determined as the final plasma dilution, which yields a higher absorbance than a negative control plasma sample, included in the assay.
(In an ELISA, binding on a coated surface is turned into a signal by an enzyme label.)

For assay [2], the system named is Murine interferon-γ (IFN-γ). The assay can be described thus: IFN-γ production by spleen cells of inoculated mice re-stimulated with OVA in vitro (ELISA). Format: cell-based, mice (BALB/c). The settings on record: cells from mice inoculated with alum/OVA plus 50 μg compound vs alum/OVA alone (control); FIG. 2. As for the experimental part:
as §1
The mouse spleen was removed aseptically and placed in a sterile petri dish containing 5 mls of complete medium (RPMI, 1% L-Glutamine, 1% Penicillin/Streptomycin and 10% foetal calf serum). Cells suspensions were prepared by using the end of a syringe and grinding the spleen through a wire mesh. The cell suspension was then centrifuged at 1000 rpm for 5 minutes. To remove the erythrocytes, the cell pellet was resuspended in Boyle's solution (Tris 0.17M & Ammonium Chloride 0.16M) and centrifuged again for 5 minutes. The pellet was then washed in medium a further two times, then resuspended in 3 ml medium. A cell count was then carried out. Stimulation assays were performed in triplicate in U-bottomed 96-well plates (Corning Costar, N.Y.) with OVA (at 5 μg/ml, 100 μg/ml and 500 μg/ml).
Murine interferon-γ (IFN-γ) was assayed by ELISA using paired antibodies according to the manufacturer's instructions.

Assay [3] concerns influenza vaccine-specific IgG, IgG1 and IgG2a. Also noted: species or system Balb/c mice. The following applies: mouse, in vivo.
In assay [4] the test system is α-glucosidase. The settings on record: cited from earlier work.
Assay [5] relates to glycosidase. The following applies: cited from earlier work.
Assay [6] deals with α-mannosidase. The settings on record: cited from earlier work.
Assay [7] relates to alum-induced Th1/Th2 response. The assay can be described thus: Effect of exogenous rIL-12 on alum-induced Th1/Th2 responses (Example 1 repeated, lymph node cultures). Format: in vivo, mice (BALB/c). The settings on record: 1 μg rIL-12 in place of 3,7-diepi-casuarine; IFN-γ on lymph node cultures. As for the experimental part:
The experiment described in Example 1 (above) was repeated, but with the 3,7-diepi-casuarine replaced with 1 μg of rIL-12 (R&D Systems, Oxford, UK). Proliferative response assays of IFN-γ were performed on lymph node cultures rather than spleen cells (as described in Pollock et al. (2003) Immunology 108:137-143).

Turning to `OC[C@H]1[C@@H](O)[C@H](O)[C@H]2[C@@H](O)[C@@H](O)CN21` [3,7-diepi-casuarine, (1R,2R,3S,6S,7R,7aR)-3-(hydroxymethyl)-1,2,6,7-tetrahydroxypyrrolizidine], the “shift of the alum-induced Th2 response towards Th1” value in assay [1] (50 μg in admixture with alum/OVA, vs alum/OVA alone) was “pronounced shift towards a Th1 response”. In addition, in assay [1] (BALB/c mice, s.c. footpad, 100 μg OVA with alum, with or without 50 μg 3,7-diepi-casuarine, bleed at 3 weeks, FIG. 1b), the “antigen-specific (OVA) IgG2a in plasma” value is listed as “significant increase”. In addition, in assay [2], the “IFN-γ produced by spleen cells re-stimulated with antigen in vitro” value is “significantly greater amount”. Further, in assay [3], the adjuvant activity entry is listed as “exhibits adjuvant activity”, the “dose response of the antibody responses” value is “No dose response”, the “influenza vaccine-specific IgG1 response vs control group vaccinated with influenza vaccine alone” value is recorded as “statistically significant increased” and the “influenza vaccine-specific IgG2a response vs control group A” value is listed as “No differences”. In addition, in assay [3], the “influenza vaccine-specific IgGtotal response vs control group A” value was “statistically significant increased” and the “skewing of the Th1/Th2 response from Th2 towards Th1” value is listed as “No skewing”.
Take `O[C@H]1[C@H](O)[C@@H](O)CN2CC[C@H](O)[C@H]12` [castanospermine]: the “inhibition of α-glucosidase” value in assay [4] is listed as “potent”.
Turning to `O[C@H]1[C@H]2[C@H](O)CCN2C[C@H]1O` [compound 7, (1S, 2R, 7R, 7aR)-1,2,7-trihydroxy], the “glycosidase inhibitory activity relative to swainsonine” value in assay [5] is “much weaker inhibitory activity”.
For the molecule `O[C@H]1[C@H]2[C@@H](O)CCN2C[C@H]1O` [compound 8], the “glycosidase inhibitory activity relative to swainsonine” value in assay [5] was “much weaker inhibitory activity”.
`O[C@H]1[C@H]2[C@H](O)CCCN2C[C@H]1O` [swainsonine]: the “inhibition of α-mannosidase” value in assay [6] was “potent and specific inhibitor”.

B1: rIL-12: rIL-12 (R&D Systems, Oxford, UK), recombinant interleukin-12 (protein, UniProt P29459 23-219; P29460 23-328, looked up)
Interleukin-12 subunit alpha: RNLPVATPDPGMFPCLHHSQNLLRAVSNMLQKARQTLEFYPCTSEEIDHEDITKDKTSTVEACLPLELTKNESCLNSRETSFITNGSCLASRKTSFMMALCLSSIYEDLKMYQVEFKTMNAKLLMDPKRQIFLDQNMLAVIDELMQALNFNSETVPQKSSLEEPDFYKTKIKLCILLHAFRIRAVTIDRVMSYLNAS
Interleukin-12 subunit beta: IWELKKDVYVVELDWYPDAPGEMVVLTCDTPEEDGITWTLDQSSEVLGSGKTLTIQVKEFGDAGQYTCHKGGEVLSHSLLLLHKKEDGIWSTDILKDQKEPKNKTFLRCEAKNYSGRFTCWWLTTISTDLTFSVKSSRGSSDPQGVTCGAATLSAERVRGDNKEYEYSVECQEDSACPAAEESLPIEVMVDAVHKLKYENYTSSFFIRDIIKPDPPKNLQLKPLKNSRQVEVSWEYPDTWSTPHSYFSLTFCVQVQGKSKREKKDRVFTDKTSATVICRKNASISVRAQDRYYSSSWSEWASVPCS
B1: the “effect on the alum-induced Th1/Th2 response” value in assay [7] was “comparable effect to 3,7-diepi-casuarine”.
